Measured values: the NIST ThermoML archive (doi:10.1016/j.tca.2017.04.014)
± gives the expanded uncertainty stated by the source.

Key:
[1] = 298.15 K, 101.3 kPa, Crystal
[2] = molar heat capacity at constant pressure; conditions: 101.33 kPa, Crystal, DSC

[O-2].[O-2].[Th+4] [thorium dioxide]
Conditions | mass density [kg/m3] | molar heat capacity at constant pressure [J/K/mol]
[1], From pellet mass and volume | 9390 ± 1900 | –
[1], X-ray diffraction | 10000 ± 30 | –
[1], buoyancy | 9430 ± 1900 | –
[2], 300 K | – | 62.1 ± 7.7
[2], 310 K | – | 61.8 ± 6.4
[2], 320 K | – | 62.8 ± 7.3
[2], 330 K | – | 63.5 ± 6
[2], 340 K | – | 64.2 ± 5.5
[2], 350 K | – | 65.1 ± 6.8
[2], 360 K | – | 65.6 ± 6.8
[2], 370 K | – | 65.9 ± 6.8
[2], 380 K | – | 66.8 ± 7.2
[2], 390 K | – | 67.3 ± 7.2
[2], 400 K | – | 67.7 ± 6.8
[2], 410 K | – | 68 ± 6.8
[2], 420 K | – | 68.4 ± 6.8
[2], 430 K | – | 68.6 ± 7.2
[2], 440 K | – | 68.9 ± 7.4
[2], 450 K | – | 69.6 ± 7.4
[2], 460 K | – | 69.8 ± 7.2
[2], 470 K | – | 70.1 ± 8.2
[2], 480 K | – | 70.2 ± 7.4
[2], 490 K | – | 70.5 ± 6.1
[2], 500 K | – | 70.7 ± 7.1
[2], 510 K | – | 70.9 ± 6.3
[2], 520 K | – | 71.2 ± 6.5
[2], 530 K | – | 71.4 ± 6.5
[2], 540 K | – | 71.7 ± 6.5
[2], 550 K | – | 71.9 ± 7.1
[2], 560 K | – | 72 ± 5.4
[2], 570 K | – | 72.1 ± 6.5
[2], 580 K | – | 72.3 ± 5.1
[2], 590 K | – | 72.5 ± 5.3
[2], 600 K | – | 72.5 ± 7.1
[2], 610 K | – | 72.5 ± 5.3
[2], 620 K | – | 73 ± 5.3
[2], 630 K | – | 73 ± 5.8
[2], 640 K | – | 73.3 ± 3.8
[2], 650 K | – | 73.6 ± 5.5
[2], 660 K | – | 73.5 ± 4
[2], 670 K | – | 73.6 ± 3.8
[2], 680 K | – | 73.6 ± 7.1
[2], 690 K | – | 73.4 ± 4
[2], 700 K | – | 73.8 ± 4
[2], 710 K | – | 74.5 ± 4
[2], 720 K | – | 74.5 ± 4
[2], 730 K | – | 74.6 ± 3.8
[2], 739 K | – | 74.7 ± 3.7
[2], 750 K | – | 74.6 ± 3.2
[2], 760 K | – | 75 ± 3.3
[2], 770 K | – | 75.3 ± 3.9
[2], 780 K | – | 75.3 ± 3.7
[2], 790 K | – | 75.3 ± 3.7
[2], 800 K | – | 75.7 ± 3.2
[2], 810 K | – | 75.7 ± 3.3
[2], 820 K | – | 75.7 ± 3.3
[2], 830 K | – | 75.9 ± 3.5
[2], 840 K | – | 76 ± 3.7
[2], 850 K | – | 76.1 ± 4.3
[2], 860 K | – | 76.4 ± 4
[2], 870 K | – | 76.1 ± 4.2
